Results taken from article PMC12827894, “Structure-guided design of picomolar-level macrocyclic TRPC5 channel inhibitors with antidepressant activity” (Acta Pharmaceutica Sinica. B, 2025).
Like-named read-outs stand apart in the source and are kept apart here.

Assays:
V1a = V1a (Homo sapiens, UniProt P37288); conditions: agonist mode
GR = target: T1, GR (Homo sapiens, UniProt P04150); test: SafetyOne44 panel: GR; assay type: cell-based
T1 construct: purchased ICE Bioscience ICESTP™ SafetyOne44 Panel
T1 sequence (P04150 whole entry): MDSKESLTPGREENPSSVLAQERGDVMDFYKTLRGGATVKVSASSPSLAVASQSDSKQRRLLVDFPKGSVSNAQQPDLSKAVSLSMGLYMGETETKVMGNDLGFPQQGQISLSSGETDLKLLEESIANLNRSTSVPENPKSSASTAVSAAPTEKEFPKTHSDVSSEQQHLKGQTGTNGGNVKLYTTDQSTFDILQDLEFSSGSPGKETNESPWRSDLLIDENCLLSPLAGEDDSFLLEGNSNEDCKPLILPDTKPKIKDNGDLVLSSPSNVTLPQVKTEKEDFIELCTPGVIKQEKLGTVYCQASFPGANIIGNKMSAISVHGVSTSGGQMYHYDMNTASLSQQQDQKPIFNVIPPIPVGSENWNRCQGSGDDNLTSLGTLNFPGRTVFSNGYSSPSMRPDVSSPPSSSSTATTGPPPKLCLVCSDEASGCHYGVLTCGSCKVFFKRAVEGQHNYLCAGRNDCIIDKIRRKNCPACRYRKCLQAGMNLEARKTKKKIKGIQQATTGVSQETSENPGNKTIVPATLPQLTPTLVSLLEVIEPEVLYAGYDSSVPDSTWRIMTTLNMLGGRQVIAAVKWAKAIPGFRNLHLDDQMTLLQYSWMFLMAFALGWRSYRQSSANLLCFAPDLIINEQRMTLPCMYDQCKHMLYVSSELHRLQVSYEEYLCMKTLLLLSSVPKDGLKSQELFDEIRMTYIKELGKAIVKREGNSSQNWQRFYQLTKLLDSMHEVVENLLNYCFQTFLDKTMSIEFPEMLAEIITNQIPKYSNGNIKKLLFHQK

μOR = target: T2, μOR (Homo sapiens, UniProt P35372); test: cell-based; conditions: antagonist mode, 10 μmol/L, read-out: Antagonist JDIC-127 @10 μmol/L
T2 construct: purchased ICE Bioscience ICESTP™ SafetyOne44 Panel
T2 sequence (P35372 whole entry): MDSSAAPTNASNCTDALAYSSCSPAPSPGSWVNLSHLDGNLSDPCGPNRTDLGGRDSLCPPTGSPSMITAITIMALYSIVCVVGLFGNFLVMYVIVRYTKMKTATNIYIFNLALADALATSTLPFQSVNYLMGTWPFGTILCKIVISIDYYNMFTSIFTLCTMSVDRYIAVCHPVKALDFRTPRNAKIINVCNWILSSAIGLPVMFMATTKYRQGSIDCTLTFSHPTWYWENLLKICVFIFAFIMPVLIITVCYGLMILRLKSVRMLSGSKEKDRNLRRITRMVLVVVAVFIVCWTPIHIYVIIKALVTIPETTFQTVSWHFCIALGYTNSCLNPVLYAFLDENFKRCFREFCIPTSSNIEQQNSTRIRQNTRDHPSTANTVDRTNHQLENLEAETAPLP

PDE4 D2 = target: T3, PDE4 D2 (Homo sapiens, UniProt Q08499); test: biochemical; conditions: PDE4D2, 10 μmol/L; read-out: Antagonist JDIC-127 @10 μmol/L
T3 construct: purchased ICE Bioscience ICESTP™ SafetyOne44 Panel
T3 sequence (Q08499 303-809 limits assumed): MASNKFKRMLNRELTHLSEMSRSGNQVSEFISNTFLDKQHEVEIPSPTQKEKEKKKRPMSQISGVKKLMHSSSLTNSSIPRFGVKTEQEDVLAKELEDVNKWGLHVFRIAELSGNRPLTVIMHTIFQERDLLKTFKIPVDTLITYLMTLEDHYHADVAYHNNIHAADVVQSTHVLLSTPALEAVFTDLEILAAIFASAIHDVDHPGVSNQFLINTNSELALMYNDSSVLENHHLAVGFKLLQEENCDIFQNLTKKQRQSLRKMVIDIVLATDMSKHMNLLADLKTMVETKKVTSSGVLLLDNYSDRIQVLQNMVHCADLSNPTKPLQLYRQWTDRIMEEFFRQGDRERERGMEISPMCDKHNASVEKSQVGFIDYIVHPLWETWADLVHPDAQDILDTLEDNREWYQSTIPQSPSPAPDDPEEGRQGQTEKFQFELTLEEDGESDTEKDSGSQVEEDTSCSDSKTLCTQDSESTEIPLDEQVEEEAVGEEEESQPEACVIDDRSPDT

CB2 = target: T4, CB2 (Homo sapiens, UniProt P34972); test: cell-based; assay type: cell-based
T4 construct: purchased ICE Bioscience ICESTP™ SafetyOne44 Panel
T4 sequence (P34972 whole entry): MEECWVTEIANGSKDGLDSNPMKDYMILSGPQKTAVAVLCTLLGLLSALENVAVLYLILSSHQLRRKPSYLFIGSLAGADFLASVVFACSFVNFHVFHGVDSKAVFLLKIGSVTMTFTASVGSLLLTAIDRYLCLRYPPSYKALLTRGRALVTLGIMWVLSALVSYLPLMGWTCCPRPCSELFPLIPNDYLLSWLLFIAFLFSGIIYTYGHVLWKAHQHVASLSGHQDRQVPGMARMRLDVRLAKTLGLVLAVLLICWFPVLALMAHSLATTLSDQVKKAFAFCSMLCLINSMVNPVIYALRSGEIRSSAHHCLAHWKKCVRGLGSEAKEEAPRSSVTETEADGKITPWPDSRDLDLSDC

H2 = target: T5, H2 (Homo sapiens, UniProt P25021); test: SafetyOne44 panel: H2; assay type: cell-based; conditions: 10 μmol/L
T5 construct: purchased ICE Bioscience ICESTP™ SafetyOne44 Panel
T5 sequence (P25021 whole entry): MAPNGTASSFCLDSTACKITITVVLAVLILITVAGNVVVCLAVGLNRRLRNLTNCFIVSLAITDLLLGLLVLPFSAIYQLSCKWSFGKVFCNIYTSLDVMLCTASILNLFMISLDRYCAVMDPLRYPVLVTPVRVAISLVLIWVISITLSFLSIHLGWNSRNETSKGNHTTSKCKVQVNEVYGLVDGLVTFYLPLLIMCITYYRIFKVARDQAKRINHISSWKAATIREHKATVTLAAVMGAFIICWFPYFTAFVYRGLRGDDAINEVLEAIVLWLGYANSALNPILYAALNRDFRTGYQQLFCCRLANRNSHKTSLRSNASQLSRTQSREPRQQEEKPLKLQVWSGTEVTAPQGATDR

β1 = target: T6, β1 (Homo sapiens, UniProt P08588); test: SafetyOne44 panel: β1; assay type: cell-based
T6 construct: purchased ICE Bioscience ICESTP™ SafetyOne44 Panel
T6 sequence (P08588 whole entry): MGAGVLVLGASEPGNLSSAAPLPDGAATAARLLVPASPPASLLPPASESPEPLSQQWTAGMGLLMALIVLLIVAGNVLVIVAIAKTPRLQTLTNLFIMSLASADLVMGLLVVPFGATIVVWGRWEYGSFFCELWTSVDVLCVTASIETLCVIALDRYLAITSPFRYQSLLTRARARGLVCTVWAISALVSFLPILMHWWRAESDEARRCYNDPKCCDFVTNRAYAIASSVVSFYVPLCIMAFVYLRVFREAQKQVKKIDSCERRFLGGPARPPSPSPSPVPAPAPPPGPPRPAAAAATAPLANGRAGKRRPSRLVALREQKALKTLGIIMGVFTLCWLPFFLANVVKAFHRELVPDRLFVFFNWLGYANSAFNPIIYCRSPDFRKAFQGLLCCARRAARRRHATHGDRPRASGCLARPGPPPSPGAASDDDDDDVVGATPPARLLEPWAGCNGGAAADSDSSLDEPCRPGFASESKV

TRPC5 = target: T7, TRPC5 (Homo sapiens, UniProt Q9UL62); test: cell-based
T7 sequence (Q9UL62 1-973): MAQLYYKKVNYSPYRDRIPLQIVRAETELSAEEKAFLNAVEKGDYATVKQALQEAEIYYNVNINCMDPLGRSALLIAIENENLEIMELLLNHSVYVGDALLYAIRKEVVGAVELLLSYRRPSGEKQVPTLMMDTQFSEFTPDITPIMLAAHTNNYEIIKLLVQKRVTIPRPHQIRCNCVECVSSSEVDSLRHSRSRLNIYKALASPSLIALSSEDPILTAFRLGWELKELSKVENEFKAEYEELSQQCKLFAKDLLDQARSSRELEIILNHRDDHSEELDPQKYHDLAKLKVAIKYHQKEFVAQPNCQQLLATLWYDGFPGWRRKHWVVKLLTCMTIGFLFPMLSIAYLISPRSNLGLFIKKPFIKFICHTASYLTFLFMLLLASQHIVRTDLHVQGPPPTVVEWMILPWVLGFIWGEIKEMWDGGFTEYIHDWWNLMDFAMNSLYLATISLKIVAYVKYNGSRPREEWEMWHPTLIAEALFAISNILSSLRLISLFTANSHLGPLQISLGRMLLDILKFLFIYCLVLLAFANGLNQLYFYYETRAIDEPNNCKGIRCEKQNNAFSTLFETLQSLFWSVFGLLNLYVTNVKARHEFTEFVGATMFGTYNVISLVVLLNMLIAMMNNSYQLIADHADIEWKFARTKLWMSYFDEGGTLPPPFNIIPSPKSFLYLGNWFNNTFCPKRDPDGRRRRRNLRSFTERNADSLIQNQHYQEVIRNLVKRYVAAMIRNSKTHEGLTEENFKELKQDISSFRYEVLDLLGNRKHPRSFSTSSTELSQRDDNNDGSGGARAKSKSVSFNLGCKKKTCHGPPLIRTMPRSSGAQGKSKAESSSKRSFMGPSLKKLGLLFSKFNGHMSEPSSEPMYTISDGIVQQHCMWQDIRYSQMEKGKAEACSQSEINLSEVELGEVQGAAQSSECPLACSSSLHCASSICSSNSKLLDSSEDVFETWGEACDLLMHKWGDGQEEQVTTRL

δOR = target: T8, δOR (Homo sapiens, UniProt P41143); test: cell-based; assay type: cell-based
T8 construct: purchased ICE Bioscience ICESTP™ SafetyOne44 Panel
T8 sequence (P41143 whole entry): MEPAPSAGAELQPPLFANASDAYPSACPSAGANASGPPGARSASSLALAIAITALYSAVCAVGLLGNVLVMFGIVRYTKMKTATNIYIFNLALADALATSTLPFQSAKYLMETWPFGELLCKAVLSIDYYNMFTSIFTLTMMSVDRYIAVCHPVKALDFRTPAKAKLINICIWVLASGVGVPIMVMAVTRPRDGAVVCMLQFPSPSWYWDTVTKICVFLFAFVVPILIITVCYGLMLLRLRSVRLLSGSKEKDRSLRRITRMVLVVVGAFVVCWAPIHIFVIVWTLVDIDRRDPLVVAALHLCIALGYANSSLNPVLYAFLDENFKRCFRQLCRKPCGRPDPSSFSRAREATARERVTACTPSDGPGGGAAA

M1 = target: T9, M1 (Homo sapiens, UniProt P11229); test: cell-based; assay type: cell-based
T9 construct: purchased ICE Bioscience ICESTP SafetyOne44 Panel
T9 sequence (P11229 whole entry): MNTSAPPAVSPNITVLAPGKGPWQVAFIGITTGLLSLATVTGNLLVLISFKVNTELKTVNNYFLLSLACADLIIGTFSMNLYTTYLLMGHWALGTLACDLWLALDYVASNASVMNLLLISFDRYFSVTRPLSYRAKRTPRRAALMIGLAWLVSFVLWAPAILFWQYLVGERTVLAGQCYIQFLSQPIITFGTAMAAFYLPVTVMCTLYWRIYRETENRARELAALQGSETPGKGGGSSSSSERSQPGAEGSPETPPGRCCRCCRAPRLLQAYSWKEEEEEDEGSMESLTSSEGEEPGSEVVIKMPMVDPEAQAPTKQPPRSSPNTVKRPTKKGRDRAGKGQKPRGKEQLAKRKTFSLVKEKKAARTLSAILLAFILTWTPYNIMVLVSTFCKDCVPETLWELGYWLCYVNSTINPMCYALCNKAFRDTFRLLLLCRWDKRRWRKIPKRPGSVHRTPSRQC

PDE3 A = target: T10, PDE3 A (Homo sapiens, UniProt Q14432); test: SafetyOne44 panel: PDE3A; assay type: biochemical; conditions: 10 μmol/L, read-out: Antagonist JDIC-127 @10 μmol/L
T10 construct: purchased ICE Bioscience ICESTP™ SafetyOne44 Panel
T10 sequence (Q14432 whole entry): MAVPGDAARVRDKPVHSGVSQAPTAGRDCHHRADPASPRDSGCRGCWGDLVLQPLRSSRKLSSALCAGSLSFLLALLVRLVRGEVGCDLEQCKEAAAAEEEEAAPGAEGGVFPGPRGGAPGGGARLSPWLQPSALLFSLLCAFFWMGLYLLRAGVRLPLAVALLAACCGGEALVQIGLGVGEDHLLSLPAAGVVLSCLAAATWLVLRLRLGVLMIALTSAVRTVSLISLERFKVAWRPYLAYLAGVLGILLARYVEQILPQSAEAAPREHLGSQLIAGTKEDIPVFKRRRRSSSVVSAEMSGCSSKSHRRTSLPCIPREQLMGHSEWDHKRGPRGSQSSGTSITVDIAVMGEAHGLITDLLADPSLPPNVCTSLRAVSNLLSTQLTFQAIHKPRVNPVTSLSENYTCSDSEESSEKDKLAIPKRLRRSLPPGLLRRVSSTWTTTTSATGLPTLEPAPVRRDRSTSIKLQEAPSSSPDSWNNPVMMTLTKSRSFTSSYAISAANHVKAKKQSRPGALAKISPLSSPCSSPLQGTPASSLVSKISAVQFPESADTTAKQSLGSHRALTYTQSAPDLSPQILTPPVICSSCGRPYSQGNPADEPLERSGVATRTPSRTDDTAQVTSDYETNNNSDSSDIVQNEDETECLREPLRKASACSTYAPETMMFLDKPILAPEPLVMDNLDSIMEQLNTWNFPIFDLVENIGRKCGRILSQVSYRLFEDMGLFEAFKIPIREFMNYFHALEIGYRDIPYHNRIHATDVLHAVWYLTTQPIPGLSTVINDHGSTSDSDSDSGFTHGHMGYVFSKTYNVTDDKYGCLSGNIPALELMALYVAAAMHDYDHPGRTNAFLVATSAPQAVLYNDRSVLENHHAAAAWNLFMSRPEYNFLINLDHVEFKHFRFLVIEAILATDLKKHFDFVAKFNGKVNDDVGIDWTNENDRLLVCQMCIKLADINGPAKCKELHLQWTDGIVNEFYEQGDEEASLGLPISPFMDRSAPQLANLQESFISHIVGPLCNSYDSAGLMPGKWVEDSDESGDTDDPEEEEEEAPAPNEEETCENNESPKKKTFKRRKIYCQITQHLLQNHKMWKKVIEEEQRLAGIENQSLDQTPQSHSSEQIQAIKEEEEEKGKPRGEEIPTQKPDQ

[1] = antagonist mode, 10 μmol/L, read-out: Antagonist JDIC-127 @10 μmol/L

O=c1c2c3nc(n2Cc2ccc(Cl)cc2)Oc2ccc(F)c(c2)OCCCCCCn3c(=O)n1CCCO [JDIC-127]
Agonist JDIC-127 @10 μmol/L (V1a): –7.01% | Agonist JDIC-127 @10 μmol/L (GR; agonist mode): 0.05% | inhibition at 10 µM (GR; [1]): 4.73% | inhibition at 10 µM (μOR): -16.9% | inhibition at 10 µM (PDE4 D2): 11.4% | Agonist JDIC-127 @10 μmol/L (CB2; CB2, agonist mode): 26.01% | inhibition at 10 µM (CB2; CB2, antagonist mode, 10 μmol/L, read-out: Antagonist JDIC-127 @10 μmol/L): -0.84% | Agonist JDIC-127 @10 μmol/L (H2; H2, agonist mode): –6.71% | inhibition at 10 µM (H2; H2, antagonist mode, read-out: Antagonist JDIC-127 @10 μmol/L): 5.6% | Agonist JDIC-127 @10 μmol/L (β1; β1, agonist mode): –1.87% | inhibition at 10 µM (β1; β1, antagonist mode, 10 μmol/L, read-out: Antagonist JDIC-127 @10 μmol/L): 1.84% | IC50 (TRPC5; HEK293T, 100 nmol/L Englerin A, read-out: IC50, inhibition of TRPC5, calcium flux assay): 0.066 nM | inhibition of TRPC5 calcium influx (TRPC5; at concentrations of 1.4 nmol/L or higher): More than 80% | fold increase in activity (vs compound 6) (TRPC5; calcium flux, SAR): approximately 15 fold | Cbr (i.v., 2 mg/kg, 2 min): 407.01 nmol/kg | Cpl (i.v., 2 mg/kg, 2 min): 367.10 nmol/L | Cbr (i.v., 2 mg/kg, 45 min): 198.65 nmol/kg | Cpl (i.v., 2 mg/kg, 45 min): 51.63 nmol/L | Cbr (i.v., 2 mg/kg, 180 min): 74.96 nmol/kg | Cpl (i.v., 2 mg/kg, 180 min): 10.12 nmol/L | Cbr (p.o., 10 mg/kg, 2 min): 22.16 nmol/kg | Cpl (p.o., 10 mg/kg, 2 min): 6.36 nmol/L | Cbr (p.o., 10 mg/kg, 45 min): 223.33 nmol/kg | Cpl (p.o., 10 mg/kg, 45 min): 88.83 nmol/L | Cbr (p.o., 10 mg/kg, 180 min): 7.35 nmol/kg | Cpl (p.o., 10 mg/kg, 180 min): 22.96 nmol/L | Agonist JDIC-127 @10 μmol/L (δOR; agonist mode): 7.81% | inhibition at 10 µM (δOR; [1]): -21.6% | Agonist JDIC-127 @10 μmol/L (M1; M1, agonist mode): –0.83% | inhibition at 10 µM (M1; M1, antagonist mode, 10 μmol/L, read-out: Antagonist JDIC-127 @10 μmol/L): 0.22% | inhibition at 10 µM (PDE3 A): 2.27%
